Each structure is given as a SMILES string. Structures can show the parent of a compound that is named as a salt.

With `CCC(CC)Oc1cc(C)nc(Nc2c(C)cc(C)cc2C)c1CN(C)C.Cl`, the melting point (as a rule, the temperature of the solid-liquid transition) fell in the range of 85 to 88 °C.
In turn, `CCC(CC)Oc1cc(C)nc(Nc2c(C)cc(C)cc2C)c1C(N)=O` (as salt: HCl) [Example 78, 4-(1-Ethyl-propoxy)-6-methyl-2-(2,4,6-trimethyl-phenylamino)-nicotinamide] yielded a melting point of 185 to 187 °C.
`CCC(CC)Oc1cc(C)nc(Nc2c(C)cc(C)cc2C)c1C(=O)N(C)C` (as salt: HCl) [Example 80, 4-(1-Ethyl-propoxy)-6,N,N-trimethyl-2-(2,4,6-trimethyl-phenylamino)-nicotinamide]: the melting point is 197 to 200 °C.
Then `CCC(COC)Nc1cc(C)nc(Oc2c(C=O)cccc2OC)c1[N+](=O)[O-]` (centres unmarked) [Example 1, 3-Methoxy-2-[4-(1-methoxymethyl-propylamino)-6-methyl-3-nitro-pyridin-2-yloxy]-benzaldehyde], with 126.5 to 130.5 °C; and `CCC(COC)Nc1cc(C)nc(Oc2c(OC)cc(OC)cc2OC)c1[N+](=O)[O-]` (centres unmarked) [Example 1, (1-Methoxymethyl-propyl)-[6-methyl-3-nitro-2-(2,4,6-trimethoxy-phenoxy)-pyridin-4-yl]-amine], with 126.8 to 129.5 °C; and `CCC(COC)Nc1cc(C)nc(Oc2ccc(OC(F)(F)F)cc2)c1[N+](=O)[O-]` (centres unmarked) [Example 1, (1-Methoxymethyl-propyl)-[6-methyl-3-nitro-2-(4-trifluoromethoxy-phenoxy)-pyridin-4-yl]-amine], with 75 to 76 °C.
With `CCC(CC)Nc1cc(C)nc(Oc2c(C)cc(C)cc2C)c1NC(=O)C(C)Cl` (centres unmarked) [Example 2, 2-Chloro-N-[4-(1-ethyl-propylamino)-6-methyl-2-(2,4,6-trimethyl-phenoxy)-pyridin-3-yl]-propionamide], the melting point lay in the range of 170 to 172 °C.
To `CCC(CC)Nc1cc(C)nc(Oc2c(C)cc(C)cc2C)c1NC(=O)CCCl` [Example 2, 3-Chloro-N-[4-(1-ethyl-propylamino)-6-methyl-2-(2,4,6-trimethyl-phenoxy)-pyridin-3-yl]-propionamide] belongs 183 to 185 °C; to `CC[C@H]1COC(=O)N1c1cc(C)nc(Oc2c(C)cc(Cl)cc2C)c1C(=O)OC` [Example 18, 2-(4-Chloro-2,6-dimethyl-phenoxy)-4-(S)-(4-ethyl-2-oxo-oxazolidin-3-yl)-6-methyl-nicotinic acid methyl ester], 144 to 145.5 °C; to `CCC(Nc1cc(C)nc(Oc2c(C)cc(Cl)cc2C)c1CO)C(C)O` (centres unmarked) [Example 25, 3-[2-(4-Chloro-2,6-dimethyl-phenoxy)-3-hydroxymethyl-6-methyl-pyridin-4-ylamino]-pentan-2ol], 180 to 182 °C.
Turning to `CCC(O)C(CC)Nc1cc(C)nc(Oc2c(C)cc(Cl)cc2C)c1CO` (centres unmarked) [Example 26, 4-[2-(4-Chloro-2,6-dimethyl-phenoxy)-3-hydroxymethyl-6-methyl-pyridin-4-ylamino]-hexan-3-ol], the melting point lay within 145 to 148 °C.
Then `C#CC(CC)Nc1cc(C)nc(Oc2c(C)cc(C)cc2C)c1C(=O)O` (centres unmarked) [Example 27, 4-(1-Ethyl-prop-2-ynylamino)-6-methyl-2-(2,4,6-trimethyl-phenoxy)-nicotinic acid], with 131 to 133 °C; and `CCC(CC)Oc1cc(C)nc(Oc2c(C)cc(C)cc2C)c1[N+](=O)[O-]` [Example 60, 4-(1-Ethyl-propoxy)-6-methyl-3-nitro-2-(2,4,6-trimethyl-phenoxy)-pyridine], with 106 to 109 °C.
To `CCC(CC)Oc1cc(C)nc(Nc2c(C)cc(C)cc2C)c1C(=O)n1ccnc1` [Example 70, [4-(1-Ethyl-propoxy)-6-methyl-2-(2,4,6-trimethyl-phenylamino)-pyridin-3-yl]-imidazol-1-yl-methanone] belongs 120 to 122 °C; to `CCC(CC)Oc1cc(C)nc(Nc2c(C)cc(C)cc2C)c1CC(C(=O)OC)C(=O)OC` [Example 72, 2-[4-(1-Ethyl-propoxy)-6-methyl-2-(2,4,6-trimethyl-phenylamino)-pyridin-3-ylmethyl]-malonic acid dimethyl ester], 96 to 98 °C; to `CCC(CC)Oc1cc(C)nc(Nc2c(C)cc(C)cc2C)c1CNC(=O)CCl` [Example 75, 2-Chloro-N-[4-(1-ethyl-propoxy)-6-methyl-2-(2,4,6-trimethyl-phenylamino)-pyridin-3-ylmethyl]-acetamide], 142 to 144 °C.
As to `CCOC(=S)SCc1c(OC(CC)CC)cc(C)nc1Nc1c(C)cc(C)cc1C` [Example 77, Dithiocarbonic acid O-ethyl ester S-[4-(1-ethyl-propoxy)-6-methyl-2-(2,4,6-trimethyl-phenylamino)-pyridin-3-ylmethyl] ester], the melting point lay in the range of 55 to 57 °C.
The compound `CCC(CC)Oc1cc(C)nc(Nc2c(C)cc(C)cc2C)c1` [Example 90, [4-(1-Ethyl-propoxy)-6-methyl-pyridin-2-yl]-(2,4,6-trimethyl-phenyl)-amine] returned a melting point of 98 to 100 °C.
Compound `Cc1cc(C)c(Oc2nc(C)cc(C(O)C(F)(F)F)c2C)c(C)c1` (centres unmarked) [Example 99, 1-[3,6-Dimethyl-2-(2,4,6-trimethyl-phenoxy)-pyridin-4-yl]-2,2,2-trifluoro-ethanol] returned a melting point of 134 to 139 °C.
Then `CCC(CC)Nc1cc(C)nc(Nc2c(C)cc(C)cc2C)c1C(N)=O` [Example 119, 4-(1-Ethyl-propylamino)-6-methyl-2-(2,4,6-trimethyl-phenylamino)-nicotinamide], with 204 to 206 °C.
Then `CCC(CC)Oc1nc(C)nc(Nc2c(C)cc(C)cc2C)c1C(N)=O` [Example 120, 4-(1-Ethyl-propoxy)-2-methyl-6-(2,4,6-trimethyl-phenylamino)-pyrimidine-5-carboxylic acid amide], with 174 to 176 °C; and `CCC(CC)Oc1cc(C)nc(Nc2c(C)cc(C)cc2C)c1NC(=O)CCl` [Example 124, 2-Chloro-N-[4-(1-ethyl-propoxy)-6-methyl-2-(2,4,6-trimethyl-phenylamino)-pyridin-3-yl]-acetamide], with 79 to 82 °C; and `CCC(CC)Nc1cc(C)nc(Nc2c(C)cc(C)cc2C)c1CC(C(=O)OC)C(=O)OC` [Example 129, 2-[4-(1-Ethyl-propylamino)-6-methyl-2-(2,4,6-trimethyl-phenylamino)-pyridin-3-ylmethyl]-malonic acid dimethyl ester], with 136 to 138 °C.
The compound `CCC(CC)Nc1cc(C)nc(Oc2c(C)cc(C)cc2C)c1CN` [Example 135, [3-Aminomethyl-6-methyl-2-(2,4,6-trimethyl-phenoxy)-pyridin4-yl]-(1-ethyl-propyl)-amine] gave a melting point of 117 to 119 °C.
In turn, `CCC(CC)Oc1nc(C)nc(Nc2c(C)cc(C)cc2C)c1C(=O)O` [Example 160, 4-(1-Ethyl-propoxy)-2-methyl-6-(2,4,6-trimethyl-phenylamino)-pyrimidine-5-carboxylic acid] registered a melting point of 118 to 120 °C.
Then `CCC(CC)Oc1nc(C)nc(Nc2c(C)cc(C)cc2C)c1CO` [Example 161, [4-(1-Ethyl-propoxy)-2-methyl-6-(2,4,6-trimethyl-phenylamino)-pyrimidin-5-yl]-methanol], with 121 to 123 °C; and `CCC(CC)Oc1cc(C)nc2c1[nH]c(=O)n2-c1c(C)cc(C)cc1C` [Example 166, 7-(1-Ethyl-propoxy)-5-methyl-3-(2,4,6-trimethyl-phenyl)-1,3-dihydro-imidazo[4,5-b]pyridin-2-one], with 184 to 186 °C.
As to `CCC(CC)Oc1cc(C)nc2c1n(C)c(=O)n2-c1c(C)cc(C)cc1C` [Example 167, 7-(1-Ethyl-propoxy)-1,5-dimethyl-3-(2,4,6-trimethyl-phenyl)-1,3-dihydro-imidazo[4,5-b]pyridin-2-one], the melting point was in the range of 151 to 153 °C.
As for `CCC(CC)Nc1cc(C)nc2c1nc(N)n2-c1c(C)cc(C)cc1C` [Example 170, N7-(1-Ethyl-propyl)-5-methyl-3-(2,4,6-trimethyl-phenyl)-3H-imidazo[4,5-b]pyridine-2,7-diamine], the melting point was 158 to 160 °C.
On to `CCC(CC)Nc1cc(C)nc(Oc2c(C)cc(OC)cc2C)c1C(N)=O` [Example 262, 4-(1-Ethyl-propylamino)-2-(4-methoxy-2,6-dimethyl-phenoxy)-6-methyl-nicotinamide], for which the melting point stood at 184 °C.
Then `CCC(Nc1cc(C)nc(Oc2c(C)cc(OC)cc2C)c1C(=O)NC)C(C)OC` (centres unmarked) [Example 284, 4-(1-Ethyl-2-methoxy-propylamino)-2-(4-methoxy-2,6-dimethyl-phenoxy)-6,N-dimethyl-nicotinamide], with 122.6 °C; and `CCC(CC)Nc1cc(C)nc(Oc2c(C)cc(C)nc2C)c1C(N)=O` [Example 287, 4-(1-Ethyl-propylamino)-6-methyl-2-(2,4,6-trimethyl-pyridin-3-yloxy)-nicotinamide], with 164.3 °C.

For the origin of these results see patent US6833378B2, “Corticotropin releasing factor antagonists” (Pfizer Inc, priority 2000, dated 2004).
